The results in this text go back to ChEMBL document CHEMBL1201862, “PubChem BioAssay data set” (2004).

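Exposure lasted 48 hours, with cells grown in 96-well plates and compounds tested at five concentrations. GI50 is the concentration that inhibits growth by half.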 The source made the active and inactive calls. No stated cut-off is given here; in the data, active = GI50 up to about 1.1 µM and inactive = higher.

Common to all, as to assay: NCI tumour cell line growth inhibition, 48 h
Assay [1] deals with ACHN.
The test system of assay [2] is COLO 205.
The subject of assay [3] is HCT-15.
In assay [4] the test system is HL-60.
Assay [5] deals with LOX IMVI.
The subject of assay [6] is MDA-MB-231.
For assay [7], the system named is MDA-MB-435.
The subject of assay [8] is Malme-3M.
The test system of assay [9] is NCI-H226.
Assay [10] has as its system NCI-H23.
Assay [11] deals with OVCAR-3.
In assay [12] the test system is OVCAR-4.
Assay [13] deals with SF-268.
For assay [14], the system named is SK-MEL-2.
In assay [15] the test system is SNB-19.
For assay [16], the system named is SNB-75.
Assay [17] has as its system SW-620.
Assay [18] concerns UACC-62.
For assay [19], the system named is K562.
Assay [20] concerns RXF 393.

Regarding `Fc1ccc(Nc2nc(Cl)c3nc[nH]c3n2)cc1Cl`, the GI50 was 34.9 µM (inactive) in [1]; > 100 µM (inactive) in assay [2]; above 100 µM in assay [3]; > 100 µM (inactive) in [4]; 75.3 µM (inactive) in [5]; > 100 µM (inactive) in assay [6]. Further, the GI50 was > 100 µM (inactive) in [7]; > 100 µM (inactive) in [8]; > 100 µM (inactive) in assay [9]; 79.6 µM (inactive) in [10]; > 100 µM (inactive) in assay [11]; > 100 µM (inactive) in assay [12]. Also, the GI50 in assay [13] is 35.6 µM (inactive); in assay [14] it was > 100 µM (inactive); in assay [15] it was > 100 µM (inactive); in assay [16], 41.4 µM (inactive); in [17], > 100 µM (inactive); in assay [18], > 100 µM (inactive).

`Cc1ccc(/C=N/n2c(=O)[nH]c3ccccc3c2=O)cc1`: the GI50 in assay [1] is > 100 µM (inactive); in assay [2], > 100 µM (inactive); in assay [3] it was above 100 µM; in [4] it was > 100 µM (inactive); in [19], > 100 µM (inactive); in [5] it was > 100 µM (inactive). The GI50 in assay [6], in [7], in [9], in [10], in assay [11] and in assay [13] was > 100 µM (inactive) in each case. The GI50 in assay [14], in assay [15], in [17] and in [18] was > 100 µM (inactive) throughout.

For the molecule `CC(=O)N1C(=O)c2cc3ccccc3cc21`, the GI50 in [1] was > 100 µM (inactive); in assay [2] it was > 100 µM (inactive); in assay [3], 90.2 µM; in assay [4], > 100 µM (inactive); in assay [19], > 100 µM (inactive); in assay [5], > 100 µM (inactive). For the same molecule, the GI50 in [6] is > 100 µM (inactive); in [7], > 100 µM (inactive); in assay [9], > 100 µM (inactive); in assay [10], 95.5 µM (inactive); in assay [13] it was > 100 µM (inactive); in [14] it was > 100 µM (inactive). The GI50 in [15] was > 100 µM (inactive); in assay [16], 92.5 µM (inactive); in assay [17], > 100 µM (inactive); in assay [18] it was > 100 µM (inactive).

As to `C[NH+]1[C@@H](Cc2ccccc2)C(=O)O[B-]1(F)c1ccccc1` (stereo partly specified), the GI50 in assay [1] was > 100 µM (inactive); in [2], > 100 µM (inactive); in assay [3] it was above 100 µM; in assay [4] it was > 100 µM (inactive); in assay [19], > 100 µM (inactive); in [6], > 100 µM (inactive). Also, the GI50 in assay [7], in assay [8], in [9], in assay [10], in assay [11] and in assay [12] was > 100 µM (inactive) in each case. Besides, the GI50 in assay [13], in assay [15], in [16], in assay [17] and in [18] was > 100 µM (inactive) throughout.

Take `O=C1C(C(O)(C(F)(F)Cl)C(F)(F)Cl)CCCC1C(O)(C(F)(F)Cl)C(F)(F)Cl` (stereo unspecified): the GI50 in [1] was > 10 µM (inactive); in [2], > 10 µM (inactive); in assay [3] it was above 10 µM; in assay [5], > 10 µM (inactive); in assay [6], > 10 µM (inactive); in [7], > 10 µM (inactive). The GI50 in assay [8], in assay [9], in assay [10], in assay [11], in [12] and in assay [20] was > 10 µM (inactive) in each case. Besides, the GI50 in assay [13], in assay [14], in assay [15], in assay [17] and in assay [18] was > 10 µM (inactive) each time.

`O=C(N/N=C\c1ccc([N+](=O)[O-])s1)c1ccncc1`: the GI50 was 18.3 µM (inactive) in assay [1]; 2.13 µM (inactive) in assay [2]; 5.27 µM in assay [3]; 2.38 µM (inactive) in assay [4]; > 10 µM (inactive) in [19]; 18.8 µM (inactive) in assay [6]. Further, the GI50 in assay [7] was 18.4 µM (inactive); in assay [8], 8.18 µM (inactive); in [9] it was 5.15 µM (inactive); in assay [10] it was 16.2 µM (inactive); in assay [11], 2.82 µM (inactive); in assay [12], 15 µM (inactive). Also, the GI50 in assay [20] is 16.9 µM (inactive); in [13] it was 13.6 µM (inactive); in assay [14], 18.2 µM (inactive); in assay [15] it was 33.4 µM (inactive); in assay [16], 19.4 µM (inactive); in assay [17], 10.8 µM (inactive). The GI50 in assay [18] was 10.7 µM (inactive).

For the molecule `CCOC(=O)[C@@H]1ON2O[C@@H](OC3CCCCC3c3ccccc3)C[C@H]3OC(=O)[C@@H]1C32` (stereo partly specified), the GI50 in [1] was > 100 µM (inactive); in assay [2] it was > 100 µM (inactive); in assay [3], above 100 µM; in assay [19], > 100 µM (inactive); in assay [5] it was > 100 µM (inactive); in assay [6] it was 84.7 µM (inactive). For the same molecule, the GI50 in assay [7] is 91.2 µM (inactive); in [9], 93.8 µM (inactive); in [10], 53.6 µM (inactive); in assay [11], > 100 µM (inactive); in assay [20] it was > 100 µM (inactive); in [13] it was > 100 µM (inactive). Besides, the GI50 in [16], in assay [17] and in [18] was > 100 µM (inactive) throughout.

As to `CCCC(=O)N1CCN(c2ccc3c(c2)OC(C)O3)CC1` (stereo unspecified), the GI50 in assay [1] was > 100 µM (inactive); in assay [2], > 100 µM (inactive); in assay [3], above 100 µM; in [19], > 100 µM (inactive); in assay [6], > 100 µM (inactive); in assay [7] it was > 100 µM (inactive). Besides, the GI50 in [8], in assay [9], in [10], in [11], in assay [12] and in assay [20] was > 100 µM (inactive) in each case. The GI50 in [13] was > 100 µM (inactive); in assay [15] it was > 100 µM (inactive); in assay [16], 15.4 µM (inactive); in [17] it was > 100 µM (inactive); in assay [18] it was > 100 µM (inactive).

As to `NC12c3c4cccc3Oc3cccc(c31)Oc1cccc(c12)O4`, the GI50 in assay [1] is > 50 µM (inactive); in [2], > 50 µM (inactive); in [3] it was above 50 µM; in [4], 18.2 µM (inactive); in [19], 31 µM (inactive); in assay [6] it was > 50 µM (inactive). Moreover, the GI50 in assay [7], in assay [9], in [10], in assay [11], in assay [12] and in [20] was > 50 µM (inactive) each time. Also, the GI50 in [13], in [14], in [15], in assay [16], in assay [17] and in assay [18] was > 50 µM (inactive) each time.

On to `Cc1ccc(S(=O)(=O)N(CCNC(=O)c2cccc(O)c2O)c2cc3c4c(c2)Oc2cccc5c2C4(C)c2c(cccc2O3)O5)cc1`, for which the GI50 in assay [1] was > 100 µM (inactive); in [3], above 100 µM; in assay [19], 41.1 µM (inactive); in assay [5] it was 6.08 µM (inactive); in assay [6], 21.7 µM (inactive); in assay [7], 5.85 µM (inactive). The GI50 in [8] was 29.2 µM (inactive); in assay [9] it was 7.74 µM (inactive); in assay [10] it was > 100 µM (inactive); in assay [11] it was 6.52 µM (inactive); in assay [12] it was > 100 µM (inactive); in assay [13], 15.1 µM (inactive). The GI50 is > 100 µM (inactive) in assay [14]; > 100 µM (inactive) in assay [15]; 10.9 µM (inactive) in assay [16]; 14.6 µM (inactive) in assay [17]; 20.8 µM (inactive) in assay [18].

As to `COc1cc2c(c(OC)c1OC)-c1ccc(OC)c(=O)cc1[C@@H](N(C)C=O)CC2`, the GI50 in [1] is 0.0802 µM (active); in assay [2], 0.0129 µM (active); in [3] it was 0.0752 µM; in assay [4], 0.0158 µM (active); in assay [19], 0.0128 µM (active); in assay [5], 0.0249 µM (active). The GI50 in assay [8] was 0.0184 µM (active); in [9] it was 0.162 µM (active); in assay [10], 0.0168 µM (active); in assay [11] it was 0.0112 µM (active); in assay [12] it was 1.37 µM (inactive); in [20], 0.0161 µM (active). Further, the GI50 in [13] is 0.0219 µM (active); in [14], 0.0135 µM (active); in assay [15], 0.0215 µM (active); in assay [16], < 0.01 µM (active); in assay [17] it was 0.0134 µM (active); in assay [18] it was 0.0177 µM (active).

In the case of `CC(C)(C)c1ccc(O)c(CN(Cc2cc(C(C)(C)C)ccc2O)c2ccccc2)c1`, the GI50 was 16.6 µM (inactive) in [1]; 17.1 µM (inactive) in assay [2]; 18.3 µM in [3]; 11.6 µM (inactive) in assay [19]; 13.7 µM (inactive) in assay [5]; 16.9 µM (inactive) in assay [6]. The GI50 was 16.2 µM (inactive) in [7]; 15.8 µM (inactive) in [8]; 21.1 µM (inactive) in assay [10]; 15.6 µM (inactive) in assay [11]; 19.2 µM (inactive) in assay [12]; 13.6 µM (inactive) in assay [20]. In addition, the GI50 in assay [13] was 17.6 µM (inactive); in assay [14], 17.6 µM (inactive); in assay [15] it was 16.4 µM (inactive); in [16] it was 18.7 µM (inactive); in assay [17] it was 18.5 µM (inactive); in assay [18], 14.7 µM (inactive).
